Test results: patent publication US10562912B2 (C&C Research Laboratories, priority 2013, dated 2020)

Experiments:
Format in all cases: cell-based
STAT3 = biological target: T1, STAT3 (Homo sapiens, UniProt P40763); test: STAT3 reporter gene assay (luciferase), LNCaP stable cell line (pSTAT3-TA-luc), IL-6 stimulation
T1 construct: plasmid pSTAT3-TA-luc), which contains a stably operating STAT3 promoter; endogenous in cells
How it was run: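 Cytotoxicity was run on a duplicate plate with CellTiter-Glo, while the other plate gave luciferase read-outs from lysed LNCaP pSTAT3-TA-luc reporter cells. Cells were treated with graded compound concentrations plus IL-6 (10 ng/mL final) for 24–48 h in 3% DCC-FBS medium. Unstimulated and stimulated wells served as negative and positive controls.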

MDA-MB-231 = test: Cell growth inhibition assay, breast cancer cell line MDA-MB-231; conditions: Homo sapiens; MDA-MB-231 breast cancer cell line, 5,000 cells/well
LNCaP = test: Cell growth inhibition assay, prostate cancer cell line LNCaP (medium with 10 ng/mL IL-6); conditions: Homo sapiens, medium supplemented with 10 ng/mL of IL-6, 10,000 cells/well

T1 sequence (P40763 whole entry): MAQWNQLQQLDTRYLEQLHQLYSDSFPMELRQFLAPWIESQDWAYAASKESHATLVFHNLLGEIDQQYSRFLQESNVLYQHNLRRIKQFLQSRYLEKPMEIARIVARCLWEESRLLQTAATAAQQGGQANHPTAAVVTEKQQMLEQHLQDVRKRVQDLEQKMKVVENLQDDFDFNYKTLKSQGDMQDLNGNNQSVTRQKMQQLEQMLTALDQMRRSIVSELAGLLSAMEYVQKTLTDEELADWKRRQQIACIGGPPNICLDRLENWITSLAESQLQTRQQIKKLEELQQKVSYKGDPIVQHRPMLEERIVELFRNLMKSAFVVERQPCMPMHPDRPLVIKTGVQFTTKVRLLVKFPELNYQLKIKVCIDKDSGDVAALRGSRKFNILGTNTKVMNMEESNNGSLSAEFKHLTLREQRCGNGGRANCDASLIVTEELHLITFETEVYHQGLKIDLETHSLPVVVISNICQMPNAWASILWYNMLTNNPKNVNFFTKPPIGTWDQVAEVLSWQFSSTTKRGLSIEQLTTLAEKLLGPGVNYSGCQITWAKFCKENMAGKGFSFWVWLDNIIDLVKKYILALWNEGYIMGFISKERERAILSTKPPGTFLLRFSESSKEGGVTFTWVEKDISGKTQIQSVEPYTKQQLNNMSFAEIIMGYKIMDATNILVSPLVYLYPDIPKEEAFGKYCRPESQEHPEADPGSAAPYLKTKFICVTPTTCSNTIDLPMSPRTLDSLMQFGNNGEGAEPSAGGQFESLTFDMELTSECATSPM

Work on `CS(=O)(=O)Nc1ccc2cc(C(=O)Nc3cc(-c4cncnc4)cc(-c4ccc(F)cc4F)c3)[nH]c2c1` [Example 360, N-(2′,4′-difluoro-5-(pyrimidin-5-yl)-[1,1′-biphenyl]-3-yl)-6-(methylsulfonamido)-1H-indole-2-carboxamide] yielded an IC50 (STAT3) of over 10 µM, an IC50 (MDA-MB-231) of 1.8 µM and an IC50 (LNCaP) of over 10 µM.

For `CS(=O)(=O)Nc1ccc2cc(C(=O)Nc3cc(-c4cnc(N)nc4)cc(-c4ccc(F)cc4F)c3)[nH]c2c1` [Example 361, N-(5-(2-aminopyrimidin-5-yl)-2′,4′-difluoro-[1,1′-biphenyl]-3-yl)-6-(methylsulfonamido)-1H-indole-2-carboxamide], the IC50 (STAT3) was over 10 µM, the IC50 (MDA-MB-231) was over 10 µM and the IC50 (LNCaP) was over 10 µM.

`CS(=O)(=O)Nc1ccc2cc(C(=O)Nc3cc(-c4ccc(F)cc4F)cc(-c4ccc(F)cc4F)c3)[nH]c2c1` [Example 362, 6-(methylsulfonamido)-N-(2,2″,4,4″-tetrafluoro-[1,1′:3′,1″-terphenyl]-5′-yl)-1H-indole-2-carboxamide] was tested, and the IC50 (STAT3) was 0.72 µM, the IC50 (MDA-MB-231) was 0.69 µM and the IC50 (LNCaP) was 2.6 µM.

`CS(=O)(=O)Nc1ccc2cc(C(=O)Nc3cc(CC#N)cc(-c4ccc(F)cc4F)c3)[nH]c2c1` [Example 363, N-(5-(cyanomethyl)-2′,4′-difluoro-[1,1′-biphenyl]-3-yl)-6-(methylsulfonamido)-1H-indole-2-carboxamide] gave an IC50 (STAT3) of 1.3 µM, an IC50 (MDA-MB-231) of 0.88 µM and an IC50 (LNCaP) of 2.4 µM.

For `CS(=O)(=O)Nc1ccc2cc(C(=O)Nc3cc(-c4ccc(O)nc4)cc(-c4ccc(F)cc4F)c3)[nH]c2c1` [Example 364, N-(2′,4′-difluoro-5-(6-hydroxypyridin-3-yl)-[1,1′-biphenyl]-3-yl)-6-(methylsulfonamido)-1H-indole-2-carboxamide], the IC50 (STAT3) was over 10 µM, the IC50 (MDA-MB-231) was over 10 µM and the IC50 (LNCaP) was over 10 µM.

With `C#Cc1cc(NC(=O)c2cc3ccc(NS(C)(=O)=O)cc3[nH]2)cc(-c2ccc(F)cc2F)c1` [Example 365, N-(5-ethynyl-2′,4′-difluoro-[1,1′-biphenyl]-3-yl)-6-(methylsulfonamido)-1H-indole-2-carboxamide] the IC50 (STAT3) was 0.4 µM, the IC50 (MDA-MB-231) was 0.32 µM and the IC50 (LNCaP) was 2.8 µM.

With `CS(=O)(=O)Nc1ccc2cc(C(=O)Nc3cc(OC(F)F)cc(-c4ccc(F)cc4F)c3)[nH]c2c1` [Example 369, N-(5-(difluoromethoxy)-2′,4′-difluoro-[1,1′-biphenyl]-3-yl)-6-(methylsulfonamido)-1H-indole-2-carboxamide] the IC50 (STAT3) was 0.7 µM, the IC50 (MDA-MB-231) was 0.28 µM and the IC50 (LNCaP) was 3.8 µM.

`CS(=O)(=O)Nc1ccc2sc(C(=O)Nc3cc(OC(F)F)cc(-c4ccc(F)cc4F)c3)cc2c1` [Example 370, N-(5-(difluoromethoxy)-2′,4′-difluoro-[1,1′-biphenyl]-3-yl)-5-(methylsulfonamido)benzo[b]thiophene-2-carboxamide] gave an IC50 (STAT3) of 0.21 µM, an IC50 (MDA-MB-231) of 0.032 µM and an IC50 (LNCaP) of 0.6 µM.

`CS(=O)(=O)Nc1ccc2cc(C(=O)Nc3cc(-c4ccc(F)cc4F)cc(N4CCCCC4)c3)[nH]c2c1` [Example 371, N-(2′,4′-difluoro-5-(piperidin-1-yl)-[1,1′-biphenyl]-3-yl)-6-(methylsulfonamido)-1H-indole-2-carboxamide] showed an IC50 (STAT3) of 0.9 µM, an IC50 (MDA-MB-231) of 1.4 µM and an IC50 (LNCaP) of 7.8 µM.

In the case of `CN(C)c1cc(NC(=O)c2cc3ccc(NS(C)(=O)=O)cc3[nH]2)cc(-c2ccc(F)cc2F)c1` [Example 372, N-(5-(dimethylamino)-2′,4′-difluoro-[1,1′-biphenyl]-3-yl)-6-(methylsulfonamido)-1H-indole-2-carboxamide], the IC50 (STAT3) is reported as 0.34 µM, the IC50 (MDA-MB-231) is reported as 0.46 µM and the IC50 (LNCaP) is reported as 3.5 µM.

For `CNc1cc(NC(=O)c2cc3ccc(NS(C)(=O)=O)cc3[nH]2)cc(-c2ccc(F)cc2F)c1` [Example 373, N-(2′,4′-difluoro-5-(methylamino)-[1,1′-biphenyl]-3-yl)-6-(methylsulfonamido)-1H-indole-2-carboxamide], the IC50 (STAT3) was 1.5 µM, the IC50 (MDA-MB-231) was 1 µM and the IC50 (LNCaP) was 4.4 µM.

Work on `CS(=O)(=O)Nc1ccc2cc(C(=O)Nc3cc(-c4ccc(F)cc4F)cc(N4CCOCC4)c3)[nH]c2c1` [Example 374, N-(2′,4′-difluoro-5-morpholino-[1,1′-biphenyl]-3-yl)-6-(methylsulfonamido)-1H-indole-2-carboxamide] yielded an IC50 (STAT3) of 6.4 µM, an IC50 (MDA-MB-231) of 2.7 µM and an IC50 (LNCaP) of 9.9 µM.

Work on `CN(C)c1cc(NC(=O)c2cc3cc(NS(C)(=O)=O)ccc3s2)cc(-c2ccc(F)cc2F)c1` [Example 375, N-(5-(dimethylamino)-2′,4′-difluoro-[1,1′-biphenyl]-3-yl)-5-(methylsulfonamido)benzo[b]thiophene-2-carboxamide] yielded an IC50 (STAT3) of 0.14 µM, an IC50 (MDA-MB-231) of 0.028 µM and an IC50 (LNCaP) of 1.1 µM.

`CN(C)c1cc(NC(=O)c2cc3cc(NS(C)(=O)=O)ccc3o2)cc(-c2ccc(F)cc2F)c1` [Example 376, N-(5-(dimethylamino)-2′,4′-difluoro-[1,1′-biphenyl]-3-yl)-5-(methylsulfonamido)benzofuran-2-carboxamide] gave an IC50 (STAT3) of 5.2 µM, an IC50 (MDA-MB-231) of 1.3 µM and an IC50 (LNCaP) of 7.7 µM.

`COc1ccc(-c2cc(NC(=O)c3cc4ccc(NS(C)(=O)=O)cc4[nH]3)cc(-c3ccc(F)cc3F)c2)cn1` [Example 382, N-(2′,4′-difluoro-5-(6-methoxypyridin-3-yl)-[1,1′-biphenyl]-3-yl)-6-(methylsulfonamido)-1H-indole-2-carboxamide] was tested, and the IC50 (STAT3) was 0.33 µM, the IC50 (MDA-MB-231) was 0.91 µM and the IC50 (LNCaP) was 3.8 µM.

`COc1cccc(-c2cc(NC(=O)c3cc4ccc(NS(C)(=O)=O)cc4[nH]3)cc(-c3ccc(F)cc3F)c2)n1` [Example 383, N-(2′,4′-difluoro-5-(6-methoxypyridin-2-yl)-[1,1′-biphenyl]-3-yl)-6-(methylsulfonamido)-1H-indole-2-carboxamide] gave an IC50 (STAT3) of 0.09 µM, an IC50 (MDA-MB-231) of 2.33 µM and an IC50 (LNCaP) of 4.3 µM.

`CS(=O)(=O)Nc1ccc2cc(C(=O)Nc3cc(-c4cccc(O)n4)cc(-c4ccc(F)cc4F)c3)[nH]c2c1` [Example 384, N-(2′,4′-difluoro-5-(6-hydroxypyridin-2-yl)-[1,1′-biphenyl]-3-yl)-6-(methylsulfonamido)-1H-indole-2-carboxamide] showed an IC50 (STAT3) of over 10 µM, an IC50 (MDA-MB-231) of over 10 µM and an IC50 (LNCaP) of over 10 µM.

`CS(=O)(=O)Nc1ccc2cc(C(=O)Nc3cccc(C(F)(F)c4ccccc4)c3)[nH]c2c1` [Example 387, N-(3-(difluoro(phenyl)methyl)phenyl)-6-(methylsulfonamido)-1H-indole-2-carboxamide] was tested, and the IC50 (STAT3) was 2.4 µM, the IC50 (MDA-MB-231) was 1.17 µM and the IC50 (LNCaP) was 3.5 µM.

`CS(=O)(=O)Nc1ccc2cc(C(=O)Nc3cccc(S(=O)(=O)c4cccc(N)c4)c3)[nH]c2c1` [Example 415, N-(3-((3-aminophenyl)sulfonyl)phenyl)-6-(methylsulfonamido)-1H-indole-2-carboxamide] gave an IC50 (STAT3) of 6.8 µM, an IC50 (MDA-MB-231) of 8.4 µM and an IC50 (LNCaP) of over 10 µM.

`C#Cc1cccc(S(=O)(=O)c2cccc(NC(=O)c3cc4ccc(NS(C)(=O)=O)cc4[nH]3)c2)c1` [Example 416] was tested, and the IC50 (STAT3) was 6 µM, the IC50 (MDA-MB-231) was 2.6 µM and the IC50 (LNCaP) was 9 µM.

`CS(=O)(=O)Nc1ccc2cc(C(=O)Nc3cccc(S(=O)(=O)c4cc(O)cc(C#N)c4)c3)[nH]c2c1` [Example 417, N-(3-((3-cyano-5-hydroxyphenyl)sulfonyl)phenyl)-6-(methylsulfonamido)-1H-indole-2-carboxamide] showed an IC50 (STAT3) of over 10 µM, an IC50 (MDA-MB-231) of over 10 µM and an IC50 (LNCaP) of over 10 µM.

With `CS(=O)(=O)Nc1ccc2sc(C(=O)Nc3cccc(C4(c5ccccc5)CC4)c3)cc2c1` [Example 421, 5-(methylsulfonamido)-N-(3-(1-phenylcyclopropyl)phenyl)benzo[b]thiophene-2-carboxamide] the IC50 (STAT3) was 0.2 µM, the IC50 (MDA-MB-231) was 0.089 µM and the IC50 (LNCaP) was 1.1 µM.

`CS(=O)(=O)Nc1ccc2cc(C(=O)Nc3cccc(C4(c5ccccc5)CC4)c3)[nH]c2c1` [Example 422, 6-(methylsulfonamido)-N-(3-(1-phenylcyclopropyl)phenyl)-1H-indole-2-carboxamide] was tested, and the IC50 (STAT3) was 0.76 µM, the IC50 (MDA-MB-231) was 0.54 µM and the IC50 (LNCaP) was 2.1 µM.

`C=C(c1ccccc1)c1cccc(NC(=O)c2cc3cc(NS(C)(=O)=O)ccc3s2)c1` [Example 423, 5-(methylsulfonamido)-N-(3-(1-phenylvinyl)phenyl)benzo[b]thiophene-2-carboxamide] was tested, and the IC50 (STAT3) was 0.26 µM, the IC50 (MDA-MB-231) was 0.094 µM and the IC50 (LNCaP) was 1.1 µM.

Compound `CS(=O)(=O)Nc1ccc2sc(C(=O)Nc3cccc(C4(c5ccc(F)cc5)CC4)c3)cc2c1` [Example 424, N-(3-(1-(4-fluorophenyl)cyclopropyl)phenyl)-5-(methylsulfonamido)benzo[b]thiophene-2-carboxamide] has an IC50 (STAT3) of 0.15 µM, an IC50 (MDA-MB-231) of 0.1 µM and an IC50 (LNCaP) of 0.5 µM.

In the case of `CS(=O)(=O)Nc1ccc2cc(C(=O)Nc3cccc(C4(c5ccc(F)cc5)CC4)c3)[nH]c2c1` [Example 425, N-(3-(1-(4-fluorophenyl)cyclopropyl)phenyl)-6-(methylsulfonamido)-1H-indole-2-carboxamide], the IC50 (STAT3) is reported as 0.46 µM, the IC50 (MDA-MB-231) is reported as 0.38 µM and the IC50 (LNCaP) is reported as 1.3 µM.

Compound `COc1cc(NC(=O)c2cc3cc(NS(C)(=O)=O)ccc3s2)cc(C2(c3cc(OC)cc(OC(F)(F)F)c3)CC2)c1` [Example 427, N-(3-methoxy-5-(1-(3-methoxy-5-(trifluoromethoxy)phenyl)cyclopropyl)phenyl)-5-(methylsulfonamido)benzo[b]thiophene-2-carboxamide] has an IC50 (STAT3) of 0.13 µM, an IC50 (MDA-MB-231) of 0.085 µM and an IC50 (LNCaP) of 0.41 µM.

`CS(=O)(=O)Nc1ccc2cc(C(=O)Nc3cc(OC(F)F)cc(C4(c5ccc(F)cc5)CC4)c3)[nH]c2c1` [Example 428, N-(3-(difluoromethoxy)-5-(1-(4-fluorophenyl)cyclopropyl)phenyl)-6-(methylsulfonamido)-1H-indole-2-carboxamide] showed an IC50 (STAT3) of 1 µM, an IC50 (MDA-MB-231) of 0.39 µM and an IC50 (LNCaP) of 1.4 µM.
